Data published in patent US20250206747A1, “COELENTERAZINE ANALOGUES” (priority 2023, published 2025).
Like-named read-outs stand apart in the source and are kept apart here.

Key:
NANOLUC® luciferase [1] = molecular target: T1, NANOLUC® luciferase (Oplophorus gracilirostris, UniProt Q9GV45, A31E/A60N/A81I/F95D/I117V/K70R/L54V/L99Q/M102K/N193R/P142E/Q151K/Q38R/Q45L/V71I/Y165I); experiment: Michaelis-Menten analysis of relative luminescence produced by NANOLUC luciferase at various concentrations of coelenterazine analogues; format: biochemical; details: 0.01 nM NANOLUC luciferase; for Vmax (norm): normalised to furimazine = 1; for Km: read-out: Km
T1 sequence (Q9GV45 other isoform, or with tags, fused parts or gaps with the stated changes): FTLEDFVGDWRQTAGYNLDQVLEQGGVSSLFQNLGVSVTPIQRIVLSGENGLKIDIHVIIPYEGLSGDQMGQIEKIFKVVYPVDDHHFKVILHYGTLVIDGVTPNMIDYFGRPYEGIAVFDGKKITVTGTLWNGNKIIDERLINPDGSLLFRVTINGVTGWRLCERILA

NANOLUC® luciferase [2] = molecular target: T1, NANOLUC® luciferase; experiment: Luminescent spectra of NANOLUC luciferase in the presence of coelenterazine analogue (peak emission); format: biochemical; details: for λ max (nm): peak luminescence emission with NANOLUC luciferase
Procedure: FIGS. 1A-1B show kinetic and spectral properties of coelenterazine analogues. (FIG. 1A) Michaelis-Menten analysis determining the relative luminescence produced by 0.01 nM NANOLUC® luciferase at various concentrations of coelenterazine analogues. […] (FIG. 1B) Luminescent spectra of 0.5 nM NANOLUC® luciferase in the presence of 20 μM coelenterazine analogue.
Experiments were conducted during the development of embodiments herein to test the effect of derivatization on the biochemical properties of novel coelenterazine analogues. Properties tested include the analogues' ability to be utilized by NANOLUC® luciferase, as assessed through the determination of Vmax and KM, as well as the peak wavelength of luminescence emission.

Row | SMILES | Vmax (norm) (NANOLUC® luciferase [1]; Table 1) | λ max (nm) (NANOLUC® luciferase [2]; Table 1) | Vmax (norm) (NANOLUC® luciferase [1]; Table 2) | λ max (nm) (NANOLUC® luciferase [2]; Table 2) | also measured
1 | O=c1c(Cc2ccco2)nc2c(-c3cnnc(Cl)c3)[nH]c(-c3cccc(F)c3)cn1-2 [Compound 10299] | 0.000505 | 622 |  |  | 
2 | O=c1c(Cc2ccco2)nc2c(-c3cnnc(Cl)c3)[nH]c(-c3ccccc3)cn1-2 [Compound 9894, 8-(6-Chloropyridazin-4-yl)-2-(furan-2-ylmethyl)-6-phenylimidazo[1,2-a]pyrazin-3(7H)-one] |  |  |  |  | peak emission (λem) (NANOLUC® luciferase [2]; Scheme 1, 0.5 nM NANOLUC luciferase, 20 μM coelenterazine analogue): 622 nm
3 | O=c1c(Cc2ccco2)nc2c(-c3cnnc(Cl)c3)[nH]c(-c3cccc(F)c3F)cn1-2 [Compound 10427, 8-(6-chloropyridazin-4-yl)-6-(2,3-difluorophenyl)-2-(furan-2-ylmethyl)imidazo[1,2-a]pyrazin-3(7H)-one] |  |  | 0.0015 | 600 | 
4 | O=C1C(Cc2ccco2)N=C2C(c3cncc(Cl)c3)=NC(c3ccccc3)=CN12 (stereo not shown) [Compound 9812, 8-(5-chloropyridin-3-yl)-2-(furan-2-ylmethyl)-6-phenylimidazo[1,2-a]pyrazin-3(7H)-one] |  |  |  |  | shift of peak emission relative to compound 7314 (NANOLUC® luciferase [2]; reacted with NANOLUC luciferase, chloropyridin group in place of phenyl ring of 7314): red-shift the peak emission
5 | O=c1c(Cc2ccco2)nc2c(Cc3ccccc3)[nH]c(-c3ccccc3)cn1-2 [Furimazine, reference compound] | 1 | 466 | 1 | 462 | Km (NANOLUC® luciferase [1]; Table 1): 0.23 µM; Km (NANOLUC® luciferase [1]; Table 2): 0.56 µM
6 | COc1cccc(-c2cn3c(=O)c(Cc4ccco4)nc-3c(-c3cnnc(Cl)c3)[nH]2)c1 [Compound 10300] | 0.000505 |  |  |  | 
